According to paper PMC3898886, “P-glycoprotein (Mdr1a/1b) and breast cancer resistance protein (Bcrp) decrease the uptake of hydrophobic alkyl triphenylphosphonium cations by the brain” (Biochimica et Biophysica Acta, 2013):

What was measured:
[1] = system: P-glycoprotein (Mdr1a/1b) and breast cancer resistance protein (Bcrp); experiment: tissue and blood content of [3H] TPP compound after IV injection, transgenic mice lacking ABC transporters, compared with wild type; conditions: for uptake into the brain, transgenic compared to wild type mice: radioactivity in brain over 20 h; for ratio of compound in the brain relative to the blood, transgenic versus WT: 5 h after IV injection of 100 nmol; for AUC for accumulation into the brain: transgenic mice
Method: (§1) For injection the mice were placed in a restraining tube and injected by the tail vein with 100 nmol [^3H] compound (~ 400–500 nCi) in 100 μL sterile phosphate buffered saline (PBS) supplemented with 10% DMSO. A sample of the [^3H] compound solution injected was retained to calculate the specific activity, which was subsequently used to determine the tissue contents of the compound. Two WT mice and two transgenic mice were injected for each compound for each time point. […] At the indicated times after injection, the mice were killed by cervical dislocation and a blood sample of ~ 100–200 μL was obtained by cardiac puncture. The organs were then removed, cleared of blood by cutting into pieces and rinsing with saline, transferred to pre-chilled Eppendorf tubes on ice, weighed and stored at − 80 °C until processing. The tissues taken were: heart, kidneys, liver, brain, skeletal muscle (gastrocnemius) and white adipose tissue (subcutaneous). […] The mice were monitored after injection to ensure no pathology or distress.
Tissues were thawed at room temperature and transferred to 50 mL Falcon tubes. Ice-cold methanol (~ 4 °C; 1 mL/100 mg tissue wet weight) was added to the tissue and the tissue homogenised using an Ultra Turrax homogeniser (2 × 30 s on ice). The homogenate was transferred in 1 mL batches to 1.5 mL Eppendorf tubes and centrifuged (10,000 ×g for 8 min at 4 °C). The methanol extract was decanted into a 20 mL glass scintillation vial (Wheaton) and the methanol evaporated under a stream of N2. Further ice-cold methanol (1 mL/100 mg) was added to the tissue homogenate pellets, vortexed for 1 min, centrifuged as above and the methanol extract decanted to a fresh 20 mL glass scintillation vial and evaporated. This procedure was repeated 3 more times to give 5 extracts per tissue sample. […] Scintillant (OptiPhase HiSafe II; 10 mL) was added to each vial, [^3H] DPM content measured in a scintillation counter (LKB Wallac 1217 Rackbeta) using appropriate quench corrections and the total amount of radioactivity per sample calculated. The specific activity of the injected [^3H] compound was then used to calculate the tissue content as mol compound/g wet weight tissue.

[2] = published value; cited from earlier work
[3] = tissue and blood content of [3H] TPP compound after IV tail vein injection, wild type mice; conditions: 100 nmol IV; for uptake by adipose tissue / uptake by the heart / uptake by the kidneys: wild type and transgenic mice; for AUC for accumulation into the brain: WT mice
Method: as §1
Tissues were thawed at room temperature and transferred to 50 mL Falcon tubes. Ice-cold methanol (~ 4 °C; 1 mL/100 mg tissue wet weight) was added to the tissue and the tissue homogenised using an Ultra Turrax homogeniser (2 × 30 s on ice). The homogenate was transferred in 1 mL batches to 1.5 mL Eppendorf tubes and centrifuged (10,000 ×g for 8 min at 4 °C). The methanol extract was decanted into a 20 mL glass scintillation vial (Wheaton) and the methanol evaporated under a stream of N2. Further ice-cold methanol (1 mL/100 mg) was added to the tissue homogenate pellets, vortexed for 1 min, centrifuged as above and the methanol extract decanted to a fresh 20 mL glass scintillation vial and evaporated. This procedure was repeated 3 more times to give 5 extracts per tissue sample. […] Scintillant (OptiPhase HiSafe II; 10 mL) was added to each vial, [^3H] […] The specific activity of the injected [^3H] compound was then used to calculate the tissue content as mol compound/g wet weight tissue.

P-gp = experiment: uptake of [3H] MitoF into tissues after pretreatment with CsA; format: in vivo, female C57/BL6 mice; conditions: tissues 60 min later
Method: To assess the effects of co-administration of cyclosporin A (CsA) on the uptake of MitoF, female C57/BL6 mice (~ 20 g) were used. The mice were injected with CsA (Sandimmun, Novartis supplied as 50 mg/mL solution which was diluted 1:4 in sterile PBS and injected 100 μL at 50 mg/kg) IV by tail vein injection, or with PBS carrier, followed 30 min later with [^3H] MitoF (100 nmol) by IV tail vein injection and 60 min later the mice were killed and the tissues harvested. All procedures were approved by the University of Otago animal ethics committee.

[4] = system: P-gp isoforms Mdr1a and Mdr1b; parameters: method as in PMID 19722701; conditions: cited from earlier work
[5] = monitoring of mice after IV injection for pathology or distress; format: in vivo; conditions: 100 nmol IV
Method: as §1

[6] = cited from earlier work
[7] = 100 nmol IV, 1 to 48 h post injection
[8] = 100 nmol IV, 1 to 20 h post injection

Row | SMILES | uptake in the liver, transgenic mice compared to controls ([1]; 100 nmol IV) | uptake into heart, kidney and white adipose tissue, transgenic versus wild type mice ([1]; 100 nmol IV) | uptake into the brain, transgenic compared to wild type mice ([1]; 100 nmol IV) | ratio of compound in the brain relative to the blood, transgenic versus WT [1] | octan-1-ol/PBS partition coefficient [2] | uptake by adipose tissue [3] | uptake by the heart [3] | uptake by the kidneys [3] | further results
1 | FCCCCCCCCCCC[P+](c1ccccc1)(c1ccccc1)c1ccccc1 [MitoF, Fluoroundecyltriphenylphosphonium] | increase in the uptake | no difference | greater uptake into the brain | increased uptake | 740 ± 100 | lower uptake | less extensive uptake | extensive uptake | increase of brain AUC, transgenic versus WT [1, 7]: ~ 9 fold; AUC for accumulation into the brain [1, 7]: 16.6 nmol·h/g wet weight; AUC for accumulation into the brain ([3]; 1 to 48 h post injection): 1.9 nmol·h/g wet weight; effect of CsA on uptake into the brain, muscle, fat, heart or kidney (P-gp; CsA 50 mg/kg IV 30 min before 100 nmol [3H] MitoF IV): did not affect; effect of CsA on uptake into the liver (P-gp; CsA 50 mg/kg IV 30 min before 100 nmol [3H] compound IV): increase uptake
2 | c1ccc([P+](c2ccccc2)(c2ccccc2)c2ccccc2)cc1 [tetraphenylphosphonium cation, tetraphenylphosphonium] | – | – | – | – | – | – | – | – | effect of ablation of Mdr1a and Mdr1b on uptake across the BBB [4]: did not increase
3 | C[P+](c1ccccc1)(c1ccccc1)c1ccccc1 [TPMP, methyltriphenylphosphonium, reference compound] | not | – | no difference | – | – | lower uptake | less extensive uptake | – | change of brain AUC, transgenic versus WT ([1]; 100 nmol IV, 1 to 5 h post injection): unchanged; AUC for accumulation into the brain ([3]; 1 to 5 h post injection): 0.87 nmol·h/g wet weight
4 | COC1=C(OC)C(=O)C(CCCCCCCCCC[P+](c2ccccc2)(c2ccccc2)c2ccccc2)=C(C)C1=O [MitoQ, mitoquinone] | increase in the uptake | no difference | greater uptake into the brain | increased uptake | 2760 | lower uptake | less extensive uptake | extensive uptake | toxicity of the injected amount [5]: non-toxic; increase of brain AUC, transgenic versus WT [1, 8]: ~ 4 fold; AUC for accumulation into the brain [1, 8]: 2.3 nmol·h/g wet weight; AUC for accumulation into the brain ([3]; 1 to 20 h post injection): 0.6 nmol·h/g wet weight; effect of CsA on biliary excretion [6]: inhibited; proportion of an IV dose excreted by the biliary pathway ([6]; within 4 h): 25%
